Entries after “also recorded” stand apart in the source; their conditions may differ. Read-outs that look alike come from different tables or passages of the source. Positions of bridges follow the written chain, without caps; N, C: chain ends. Non-standard residues stand in square brackets, D forms with d. Residues, ends and D or L forms follow the SMILES beside them. *: point of attachment. X1 = CC[C@H](C)CCCCC(=O)*; Dab = NCC[C@H](N)C(=O)O
What was measured:
[1] = Early renal damage indicators, serum creatinine and urea; format: in vivo, human; details: Day8; individual subjects S01–S12, one line each; normal range 0.7-1.8 mg/L
Protocol: (§1) During the study, close observations and detailed records were kept in all subjects for clinical adverse events (AE), abnormal results of clinical laboratory tests and other specific examinations. The early renal damage indicators, including serum β2-microglobulin, serum Cysteine […] inhibitor C (Cystatin C), urine neutrophils gelatinase-associated lipocalin (NGAL) and urine β2-microglobulin, were tested at day 4 and day 8 after the start of drug administration.

[2] = human, in vivo; cited from earlier work
[3] = Plasma pharmacokinetics of CMS and colistin after multi-dose intravenous infusions of CMS; details: for CLr: renal clearance; for Cmax: healthy Chinese subjects, UPLC-MS/MS; for AI (accumulation index): Day 7, after 7 consecutive days of CMS 2.5 mg/kg CBA i.v. q12 h; for clearance: CLt
Protocol: (§2) A single-center, open-label, multi-dose trial design was conducted following multiple intravenous administrations of CMS in 12 healthy Chinese subjects.
(§3) The dose regimen was 2.5 mg/kg CBA for 7 consecutive days with 12 h between each administration, except for one dose on day 1 (first dose) and day 7 (last dose). Each intravenous infusion time was 90 ± 10 min.
(§4) The blood samples were collected on day 1 and day 7 at pre-dose during intravenous infusion (30 min and 60 min after the start of intravenous infusion), immediately after the end of intravenous infusion (1.5 h) and at 1.75 h, 2 h, 2.5 h, 3.5 h, 5 h, 7 h, 9 h, 12 h, 16 h and 24 h after the start of intravenous infusion. From day 2 to day 6, blood samples were collected before and immediately after the end of infusion of the first dose. All blood samples were collected and transferred into an EDTA-K2 tube, and were then centrifuged at 3500 rpm for 10 min at 4 °C. Within 1 h after blood collection, the plasma samples were stored at −70 ± 10 °C until analysis [10].
(§5) The concentrations of CMS and colistin in plasma and urine samples were analyzed with a verified ultra-performance liquid chromatography tandem mass spectrometry method [30]. To determine the free colistin concentration, the matrix was alkalized with 5% ammonia at 0–4 °C, and CMS concentrations were obtained with acid hydrolysis, and then loaded onto the Oasis weak cation exchange 96-well plate (WCX, Waters, Milford, MA, USA). The standard curves of colistin A/colistin B for the plasma and urine samples ranged from 0.0446/0.0332–4.46/3.32 μg/mL to 0.0223/0.0166–2.23/1.66 μg/mL [10], respectively. The concentrations of colistin and CMS were determined as the major components of colistin A+ colistin B and colistin A methanesulfonate (CMS A) + colistin B methanesulfonate (CMS B), respectively.
(§6) The PK parameters of CMS and colistin in plasma were calculated by the non-compartment model [23] using the WinNonlin8.0 software (Pharsight, Mountain View, CA, USA). […] The urine excretion rate was calculated according to the correction of renal clearance (CLr). The PK parameters in urine samples calculated included interval urinary excretion rate, cumulative urinary excretion rate and CLr.
(§7) The PK parameters were expressed as average ± standard deviation (mean ± SD). The main PK parameters after the first and last doses were evaluated by paired t test (SAS 9.4, SAS Institute, Inc., Cary, NC, USA). p value ≤ 0.05 was considered as significant.

[4] = human, in vivo, iv
Protocol: as §2, §3, §4, §5, §6, §7

[5] = Safety evaluation: clinical adverse events and laboratory tests; format: in vivo, human
Protocol: as §1

[6] = test system: extremely drug-resistant (XDR) P. aeruginosa; details: cited from earlier work
[7] = Urine excretion of CMS and colistin after multi-dose intravenous infusions of CMS; format: in vivo; details: human, 12 subjects, mean ± SD, read-out: Cumulative urine excretion rate within 0–24 h
Protocol: Urine samples (700 μL) were mixed with equal volume of 1% bovine serum albumin (BSA) prior and stored at −70 ± 10 °C until analysis.

[8] = cited from earlier work
Protocol: CMS in clinic has generally been expressed as the internationally accepted term of c ... || A new CMS formula was produced with a 4:1 ratio of CMS A:CMS B, and met the requirements of the European Pharmacopoeia EP9.2 [9]. […] The Cavg,ss (95% CI) was 0.92 (0.85, 0.99) μg/mL after 7 days of 2.5 mg/kg CBA every 12 h (q12 h) administration of this new formulation, as simulated by the obtained single-dose PK parameters. The purpose of this study was to investigate the PK characteristics of CMS and colistin in plasma and urine following multip ... || This study evaluated the applicability of CMS at the recommended dosing regimen (2.5 mg/kg CBA q12 h) for the first time in Chinese subjects.

[9] = value used to calculate fAUC0–24; cited from earlier work
Protocol: The target values of fAUC0–24/MIC used in this study were from published PK/PD study reports of colistin, conducted on animal infection models. […] The free colistin fraction f used was 50% [6, 31]. AUC0–24,ss values from this study were calculated as 2 times AUC0–12 on day 7 based on the twi ...

[10] = Day 1 (first dose), CMS 2.5 mg/kg CBA i.v., mean ± SD, n = 12, SD
[11] = Day 1 (first dose), CMS 2.5 mg/kg CBA i.v., plasma, mean ± SD, n = 12, SD
[12] = Day 1 (first dose), CMS 2.5 mg/kg CBA i.v., mean ± SD, n = 12, day 1 urine stored without BSA, for reference only, SD
[13] = Day 7 (last dose), CMS 2.5 mg/kg CBA i.v. q12 h 7 days, mean ± SD, n = 12, SD
[14] = Day 7 (last dose, steady state), CMS 2.5 mg/kg CBA i.v. q12 h 7 days, plasma, mean ± SD, n = 12, SD
[15] = 12 healthy Chinese subjects, CMS 2.5 mg/kg CBA i.v. q12 h 7 days
[16] = individual healthy Chinese subjects S01–S12, one line each, CMS 2.5 mg/kg CBA i.v. q12 h 7 days
[17] = 33 patients with XDR P. aeruginosa UTIs
[18] = human, plasma, iv, 2.5 mg/kg CBA, SD
[19] = earlier CMS formula, CMS A:CMS B 1:2, healthy Chinese subjects

In the case of Colistin methanesulfonate [CMS], the “serum β2-microglobulin” value [1] is listed as 1.72 mg/L, the incidence of nephrotoxicity [2] is listed as 26.0–74.1% and the CLt [3, 10] is listed as 1.3 ± 0.33 mL/min/kg. For the same compound, the Vd [3, 10] was 0.15 ± 0.03 L/kg, the “fm (fraction of CMS converted to colistin in the body)” value [3, 10] was 0.27 ± 0.12 and the “AUC0–12” value [3, 11] was 53730 ± 9770 ng·h/mL. For the same compound, the “AUC0–24” value [3, 11] was 53960 ± 9930 ng·h/mL, the CLr [3, 12] was 1 ± 0.17 mL/min/kg and the Cmax ([3]; Day 1 (first dose), CMS 2.5 mg/kg CBA i.v. infusion 90 min, plasma, non-compartment model, mean ± SD, n = 12, SD) was 22200 ± 4380 ng/mL. The “fm (fraction of CMS converted to colistin in the body)” value [3, 13] was 0.45 ± 0.15, the CLr [3, 13] was 0.67 ± 0.33 mL/min/kg and the CLt ([3]; Day 7 (last dose, steady state), CMS 2.5 mg/kg CBA i.v. q12 h 7 days, mean ± SD, n = 12, SD) was 1.3 ± 0.33 mL/min/kg. For the same compound, the “Cavg,ss” value [3, 14] was 4410 ± 754 ng/mL, the “Cmin,ss” value [3, 14] was 133 ± 141 ng/mL and the “AI (accumulation index)” value ([3]; mean ± SD, n = 12, SD) was 1.07 ± 0.10. The “T1/2, median” value [4] was 1.72 h, the half-life [4] was 1.52 h and the “Deaths or serious adverse events” value [5, 15] was “No serious adverse events were observed; also recorded: No deaths or other serious adverse events occurred”. The “Vital signs, QTc and electrocardiogram” value [5, 15] was “No abnormal vital signs nor QTc prolongations or other clinically significant electrocardiogram abnormalities were found”, the Nephrotoxicity ([5]; 12 healthy Chinese subjects, CMS 2.5 mg/kg CBA i.v. q12 h 7 days, no increase in urine β2 microglobulin and urine NGAL) was “no nephrotoxicity was observed; also recorded: No obvious nephrotoxicity occurred” and the “Subjects with adverse effects” value ([5]; 12 healthy Chinese subjects, after multi-dose i.v. infusions of CMS, all mild and transient) was “Eleven out of the twelve”. The “Abnormality in Laboratory Test” value [5, 16] was “Normal; also recorded: Decreased absolute value of neutrophils (2 days)” and the “Clinical Adverse Event (Duration)” value [5, 16] was “Facial itchiness (4 days and 12 h) Tongue numbness (5 days and 2 h) Dizziness (2 days and 16 h); also recorded: Facial itchiness (2 days and 3 h) Tongue numbness (5 days and 8 h); also recorded: Tongue numbness (6 days and 12 h) Lip numbness (5 days and 10 h) Sore throat (1 day and 23 h) Erythema (6 days and 13 h); also recorded: Normal; also recorded: Tongue numbness (5 days and 20 h) Dizziness (4 h); also recorded: Tongue numbness (5 days and 14 h); also recorded: Tongue numbness (5 days and 8 h) Dizziness (2 days and 13 h) Headache (1 day and 19 h) Lip numbness (1 day and 10 h) Skin itchiness (1 day and 20 h); also recorded: Tongue numbness (5 days and 20 h) Lip numbness (2 days and 15 h) Pharyngeal discomfort (5 days and 16 h) Facial numbness (4 days and 16 h)”.

In the case of `CC[C@H](C)CCCCC(=O)N[C@@H](CCN)C(=O)N[C@H](C(=O)N[C@@H](CCN)C(=O)N[C@H]1CCNC(=O)[C@H]([C@@H](C)O)NC(=O)[C@H](CCN)NC(=O)[C@H](CCN)NC(=O)[C@H](CC(C)C)NC(=O)[C@@H](CC(C)C)NC(=O)[C@H](CCN)NC1=O)[C@@H](C)O` [colistin] (X1-[Dab]T[Dab][Dab][Dab][dL]L[Dab][Dab]T; lactam 4-C), the “AUC0–24/MIC” value [6, 17] is given as 60.5 ± 56.4, the “fAUC0–24/MIC” value [6, 17] is given as 30.2 ± 28.2 and the “Cavg,ss” value ([6]; patients with XDR P. aeruginosa UTIs) is given as 1.19 (0.21–5.20) μg/mL. The dose excreted ([7]; after the first dose, CMS 2.5 mg/kg CBA i.v., day 1 urine stored without BSA, for reference only) was 0.41 ± 0.28%, the dose excreted ([7]; urine, 2.5 mg/kg CBA, after the last dose (steady state), CMS 2.5 mg/kg CBA i.v. q12 h 7 days) was 1.22 ± 0.7% and the CLr [3, 12] was 0.013 ± 0.0067 mL/min/kg. The CLr [3, 13] was 0.025 ± 0.012 mL/min/kg, the “Cavg,ss” value [3, 14] was 1270 ± 270 ng/mL and the “Cmin,ss” value [3, 14] was 670 ± 220 ng/mL. The “AI (accumulation index)” value ([3]; mean ± SD, n = 12, SD) was 1.32 ± 0.06, the AUC(0-t) ([3]; human, plasma, iv, 2.5 mg/kg CBA, AUC0–12 (AUC0–12,ss), Day 7 (last dose, steady state), CMS 2.5 mg/kg CBA i.v. q12 h 7 days, plasma, mean ± SD, n = 12, SD) was 15300 ± 3290 ng·h/mL and the AUC(0-t) ([3]; human, plasma, iv, 2.5 mg/kg CBA, AUC0–12, Day 1 (first dose), CMS 2.5 mg/kg CBA i.v., plasma, mean ± SD, n = 12, SD) was 9800 ± 1710 ng·h/mL. It also gave an AUC(0-t) ([3]; human, plasma, iv, 2.5 mg/kg CBA, AUC0–24, Day 1 (first dose), CMS 2.5 mg/kg CBA i.v., plasma, mean ± SD, n = 12, SD) of 12600 ± 2550 ng·h/mL, a clearance ([3]; human, plasma, iv, 2.5 mg/kg CBA, Day 1 (first dose), CMS 2.5 mg/kg CBA i.v., mean ± SD, n = 12, SD) of 3.5 mL/min/kg and a clearance ([3]; human, plasma, iv, 2.5 mg/kg CBA, Day 7 (last dose, steady state), CMS 2.5 mg/kg CBA i.v. q12 h 7 days, mean ± SD, n = 12, SD) of 3 mL/min/kg. For the same compound, the Cmax ([3]; human, plasma, iv, 2.5 mg/kg CBA, Cmax, Day 1 (first dose), CMS 2.5 mg/kg CBA i.v. infusion 90 min, plasma, non-compartment model, mean ± SD, n = 12, SD) was 1170 ± 180 ng/mL, the Cmax ([3]; human, plasma, iv, 2.5 mg/kg CBA, Cmax, Day 7 (last dose, steady state), CMS 2.5 mg/kg CBA i.v. q12 h 7 days, plasma, mean ± SD, n = 12, SD) was 1790 ± 370 ng/mL and the half-life ([3]; human, plasma, iv, 2.5 mg/kg CBA, T1/2, Day 1 (first dose), CMS 2.5 mg/kg CBA i.v., plasma, mean ± SD, n = 12, SD) was 5.15 ± 0.95 h. The half-life ([3]; human, plasma, iv, 2.5 mg/kg CBA, T1/2, Day 7 (last dose), CMS 2.5 mg/kg CBA i.v. q12 h 7 days, plasma, mean ± SD, n = 12, SD) was 5.9 ± 0.58 h, the half-life ([3]; human, plasma, iv, 2.5 mg/kg CBA, T1/2, median, after the first dose, median, n = 12) was 4.97 h and the half-life ([3]; human, plasma, iv, 2.5 mg/kg CBA, T1/2, median, after the last dose, median, n = 12) was 6.1 h. For the same compound, the Tmax ([3]; human, plasma, iv, 2.5 mg/kg CBA, Day 1 (first dose), CMS 2.5 mg/kg CBA i.v., plasma, mean ± SD, n = 12, SD) was 4.42 ± 0.9 h, the Tmax ([3]; human, plasma, iv, 2.5 mg/kg CBA, Day 7 (last dose), CMS 2.5 mg/kg CBA i.v. q12 h 7 days, plasma, mean ± SD, n = 12, SD) was 3.38 ± 0.68 h and the Tmax ([3]; human, plasma, iv, 2.5 mg/kg CBA, median, after the first dose, median, n = 12) was 5 h. It also gave a Tmax ([3]; human, plasma, iv, 2.5 mg/kg CBA, median, after the last dose, median, n = 12) of 3.5 h, a Vd ([3]; human, plasma, iv, 2.5 mg/kg CBA, Vd, Day 1 (first dose), CMS 2.5 mg/kg CBA i.v., mean ± SD, n = 12, SD) of 1.52 ± 0.22 L/kg and a Vd ([3]; human, plasma, iv, 2.5 mg/kg CBA, Vd, Day 7 (last dose, steady state), CMS 2.5 mg/kg CBA i.v. q12 h 7 days, mean ± SD, n = 12, SD) of 1.66 ± 0.25 L/kg. For the same compound, the level at 48 h [3, 18] was 93 ± 42.8 ng/mL, the level at 72 h [3, 18] was 632 ± 155 ng/mL and the level at 96 h [3, 18] was 684 ± 177 ng/mL. The level at 120 h [3, 18] was 738 ± 217 ng/mL, the level at 144 h [3, 18] was 754 ± 238 ng/mL and the “plasma Cavg,ss of colistin” value ([8]; 51 critically ill patients with normal renal function (CLCr ≥ 80 mL/min), FDA-recommended dose 2.5–5 mg CBA/kg) was 1.29 (0.45–5.28) μg/mL. For the same compound, the “median Cavg,ss concentration” value ([8]; 87 critically ill patients with CrCL >120 mL/min, loading dose 9 MIU then 4.5 MIU twice daily) was 1.6 (0.4–4.8) μg/mL, the “median concentration (plasma Cavg,ss of colistin)” value ([8]; 214 patients with different renal functions) was 2.35 (0.24–9.92) μg/mL and the “AUC0–12,ss” value [8, 19] was 9230 ± 1790 ng·h/mL. The “Cavg,ss” value [8, 19] was 760 ± 151 ng/mL, the “AUC0–12,ss” value ([8]; healthy Japanese subjects, CMS 2.5 mg/kg CBA i.v. twice a day for 2.5 days) was 25700 ± 7490 ng·h/mL and the “Patients achieving Cavg,ss at ≥1 μg/mL” value ([8]; patients with normal renal function at the recommended doses of EMA and FDA) was 65–75%. For the same compound, the “Cavg,ss (95% CI)” value ([8]; simulated from single-dose PK parameters, 7 days of 2.5 mg/kg CBA q12 h of the new formulation) was 0.92 (0.85, 0.99) μg/mL and the “free colistin fraction f” value [9] was 50%.
